The target of the assay is T1, LTA4H (Homo sapiens, UniProt P09960).
T1 sequence (P09960 1-611): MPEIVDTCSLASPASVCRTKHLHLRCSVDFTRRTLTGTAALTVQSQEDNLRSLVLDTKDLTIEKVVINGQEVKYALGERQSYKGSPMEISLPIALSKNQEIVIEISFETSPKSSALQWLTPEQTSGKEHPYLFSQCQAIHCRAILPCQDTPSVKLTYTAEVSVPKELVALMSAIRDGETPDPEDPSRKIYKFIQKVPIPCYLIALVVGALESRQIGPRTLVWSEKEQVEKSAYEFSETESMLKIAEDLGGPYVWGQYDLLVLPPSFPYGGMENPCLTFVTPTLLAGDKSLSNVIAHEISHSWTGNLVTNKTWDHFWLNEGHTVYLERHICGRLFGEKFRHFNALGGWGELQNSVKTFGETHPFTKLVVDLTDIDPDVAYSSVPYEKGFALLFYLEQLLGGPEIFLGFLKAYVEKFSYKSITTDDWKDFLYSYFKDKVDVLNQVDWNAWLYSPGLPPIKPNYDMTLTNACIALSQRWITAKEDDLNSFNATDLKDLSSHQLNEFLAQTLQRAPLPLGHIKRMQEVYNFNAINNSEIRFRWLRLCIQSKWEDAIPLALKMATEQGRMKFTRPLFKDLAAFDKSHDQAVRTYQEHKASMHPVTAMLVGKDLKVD
Description: In vitro inhibition of epoxide hydrolase enzymatic activity of LTA4H (LTB4 production). The format is biochemical.

pIC50: −log10 of the molar value.

As for `O=C(O)c1ccc(CN2C[C@@H]3C[C@H]2CN3Cc2ccc(Oc3ccc(-c4ncco4)cc3)cc2)cc1` [acebilustat, 4-{[(1 S,4S)-5-({4-[4-oxazol-2-yl-phenoxy]phenyl}methyl)-2,5-diazabicyclo[2.2.1]heptan-2-yl]methyl}benzoic acid], the pIC50 (as a rule, −log10 of the IC50, conventionally taken in molar units) is 7.88.
